Source: patent US9982005B2, “Macrolides and methods of their preparation and use” (President and Fellows of Harvard College, priority 2013, dated 2018)
In brackets after ≈: the same amount, converted by molar mass. Like-named read-outs stand apart in the source and are kept apart here.

Tests used:
Assay type in all cases: cell-based
E. faecalis strains = assay: MIC against E. faecalis strains (Table M8); details: for MIC: Enterococcus faecalis, E. faecalis 29212
K. pneumoniae strains = assay: MIC against K. pneumoniae strains (Table M8); details: for MIC: Klebsiella pneumoniae, K. pneumoniae 10031
S. pneumoniae strains = assay: MIC against S. pneumoniae strains (Tables M7, M8); details: for MIC: Streptococcus pneumoniae
Text: CLSI standard procedures for broth dilution MIC determination were used. […] These genotypes can be constitutive or inducible.

H. influenzae strains = assay: MIC against H. influenzae strains (Table M8); details: for MIC: Haemophilus influenzae
Text: (§1) We have collected MIC data for a total of 50 novel macrolides that this platform has produced against over 21 unique strains of B. subtilis, E. coli, S. aureus, S. pneumoniae, and H. influenzae, including several multidrug-resistant strains, with a special focus on macrolide resistant mechanisms (vide supra). Azithromycin was included as a control macrolide. CLSI standard procedures for broth dilution MIC determination were used. […] These genotypes can be constitutive or inducible. The finding that C4-epi (unnatural) isomers of the “azaketolide” macrolide class have enhanced activities relative to C4 natural isomers is very exciting.

E. coli strains = assay: MIC against E. coli strains (Table M7); details: for MIC: Escherichia coli, ATCC25922, E. coli ATCC 25922
Text: as §1

S. aureus strains = assay: MIC against S. aureus strains (Table M7); details: for MIC: Staphylococcus aureus
Text: as §1

A. baumannii strains = assay: MIC against A. baumannii strains (Table M8); details: for MIC: Acinetobacter baumannii, BAA747, A. baumannii BAA747-1
[1] = S. pneumoniae 160, read-out: MIC S. pneumonae (160)
[2] = S. pneumoniae 1509, read-out: MIC S. pneumoniae (1509)
[3] = S. pneumoniae 1533, read-out: MIC S. pneumoniae (1533)
[4] = S. pneumoniae 1537, read-out: MIC S. pneumoniae (1537)
[5] = S. pneumoniae 49619, read-out: MIC S. pneumoniae (49619)
[6] = H. influenzae 49247, read-out: MIC H. influenzae (49247)
[7] = H. influenzae 49766, read-out: MIC H. influenzae (49766)
[8] = ATCC29213, S. aureus ATCC 29213, read-out: MIC S. aureus (ATCC 29213)
[9] = S. aureus 183, read-out: MIC S. aureus (183)
[10] = S. aureus 506, read-out: MIC S. aureus (506)
[11] = S. aureus 1708, read-out: MIC S. aureus (1708)
[12] = USA300, S. aureus USA300, read-out: MIC S. aureus (USA300)

MIC (E. faecalis strains)	MIC (K. pneumoniae strains)	MIC (S. pneumoniae strains; [1])	MIC (S. pneumoniae strains; [2])	MIC (S. pneumoniae strains; [3])	MIC (S. pneumoniae strains; [4])	MIC (S. pneumoniae strains; [5])	MIC (H. influenzae strains; [6])	MIC (H. influenzae strains; [7])	MIC (E. coli strains)	MIC (S. aureus strains; [8])	MIC (S. aureus strains; [9])	MIC (S. aureus strains; [10])	MIC (S. aureus strains; [11])	MIC (S. aureus strains; [12])	MIC (A. baumannii strains)	MIC E. faecalis (29212) (E. faecalis strains)	MIC K. pneumoniae (10031) (K. pneumoniae strains)	MIC S. pneumonae (160) (S. pneumoniae strains; S. pneumoniae 160)	MIC S. pneumoniae (1509) (S. pneumoniae strains; S. pneumoniae 1509)	SMILES	further results
16 µg/mL (≈ 19 µM)	4 µg/mL (≈ 4.74 µM)	0.25 µg/mL (≈ 0.296 µM)	> 32 µg/mL	> 32 µg/mL	> 32 µg/mL	1 µg/mL (≈ 1.18 µM)	4 µg/mL (≈ 4.74 µM)	32 µg/mL (≈ 37.9 µM)	32 µg/mL (≈ 37.9 µM)	> 32 µg/mL	> 32 µg/mL	> 32 µg/mL	> 32 µg/mL	32 µg/mL (≈ 37.9 µM)	> 32 µg/mL					CC[C@H]1OC(=O)[C@H](C)C(O)[C@H](C)[C@@H](O[C@@H]2OC(C)CC(N(C)C)C2O)[C@](C)(OC)C[C@@H](C)CN(C)[C@H](C)[C@H]2N(CCCCn3cc(-c4cccc(N)c4)nn3)C(=O)O[C@]12C (some centres unmarked) [FSM-21335]	
4 µg/mL (≈ 4.61 µM)	16 µg/mL (≈ 18.4 µM)	1 µg/mL (≈ 1.15 µM)	> 32 µg/mL	> 32 µg/mL	> 32 µg/mL	2 µg/mL (≈ 2.3 µM)	8 µg/mL (≈ 9.22 µM)	16 µg/mL (≈ 18.4 µM)	> 32 µg/mL	8 µg/mL (≈ 9.22 µM)	> 32 µg/mL	> 32 µg/mL	16 µg/mL (≈ 18.4 µM)	8 µg/mL (≈ 9.22 µM)	> 32 µg/mL					C=CC[C@@H]1[C@H]2N(CCCCn3cc(-c4cccc(N)c4)nn3)C(=O)O[C@]2(C)[C@@H](CC)OC(=O)[C@H](C)C(=O)[C@H](C)[C@@H](O[C@@H]2OC(C)CC(N(C)C)C2O)[C@](C)(OC)C[C@@H](C)CN1C (some centres unmarked) [FSM-11094]	

Further lines, the compound ahead of its results:

SMILES	MIC (E. faecalis strains)	MIC (K. pneumoniae strains)	MIC (S. pneumoniae strains; [1])	MIC (S. pneumoniae strains; [2])	MIC (S. pneumoniae strains; [3])	MIC (S. pneumoniae strains; [4])	MIC (S. pneumoniae strains; [5])	MIC (H. influenzae strains; [6])	MIC (H. influenzae strains; [7])	MIC (E. coli strains)	MIC (S. aureus strains; [8])	MIC (S. aureus strains; [9])	MIC (S. aureus strains; [10])	MIC (S. aureus strains; [11])	MIC (S. aureus strains; [12])	MIC (A. baumannii strains)	MIC E. faecalis (29212) (E. faecalis strains)	MIC K. pneumoniae (10031) (K. pneumoniae strains)	MIC S. pneumonae (160) (S. pneumoniae strains; S. pneumoniae 160)	MIC S. pneumoniae (1509) (S. pneumoniae strains; S. pneumoniae 1509)	further results
CC[C@H]1OC(=O)[C@H](CC#N)C(=O)[C@H](C)[C@@H](O[C@@H]2OC(C)CC(N(C)C)C2O)[C@](C)(OC)C[C@@H](C)CN[C@H](C)[C@H]2N(CCCCn3cc(-c4cccc(N)c4)nn3)C(=O)O[C@]12C (some centres unmarked) [FSM-56160]	8 µg/mL (≈ 9.38 µM)	8 µg/mL (≈ 9.38 µM)	2 µg/mL (≈ 2.34 µM)	> 32 µg/mL	> 32 µg/mL	> 32 µg/mL	16 µg/mL (≈ 18.8 µM)	8 µg/mL (≈ 9.38 µM)	32 µg/mL (≈ 37.5 µM)	> 32 µg/mL	> 32 µg/mL	> 32 µg/mL	> 32 µg/mL	> 32 µg/mL	> 32 µg/mL	> 32 µg/mL					
C=CC[C@@]1(OC)C[C@@H](C)CN[C@H](C)[C@H]2N(CCCCn3cc(-c4cccc(N)c4)nn3)C(=O)O[C@]2(C)[C@@H](CC)OC(=O)[C@H](C)C(=O)[C@@H](C)[C@H]1O[C@@H]1OC(C)CC(N(C)C)C1O (stereo in doubt) [FSM-21368]																	2 µg/mL (≈ 2.34 µM)	4 µg/mL (≈ 4.68 µM)	0.25 µg/mL (≈ 0.293 µM)	8 µg/mL (≈ 9.37 µM)	MIC S. pneumoniae (1533) (S. pneumoniae strains; S. pneumoniae 1533): >32 µg/mL; MIC S. pneumoniae (1537) (S. pneumoniae strains; S. pneumoniae 1537): >32 µg/mL; MIC S. pneumoniae (49619) (S. pneumoniae strains; S. pneumoniae 49619): 1 µg/mL (≈ 1.17 µM); MIC H. influenzae (49247) (H. influenzae strains; H. influenzae 49247): 2 µg/mL (≈ 2.34 µM); MIC H. influenzae (49766) (H. influenzae strains; H. influenzae 49766): 8 µg/mL (≈ 9.37 µM); MIC E. coli (ATCC 25922) (E. coli strains): 8 µg/mL (≈ 9.37 µM); MIC S. aureus (183) (S. aureus strains; S. aureus 183): >32 µg/mL; MIC S. aureus (506) (S. aureus strains; S. aureus 506): >32 µg/mL; MIC S. aureus (1708) (S. aureus strains; S. aureus 1708): 16 µg/mL (≈ 18.7 µM); MIC S. aureus (ATCC 29213) (S. aureus strains): 8 µg/mL (≈ 9.37 µM); MIC S. aureus (USA300) (S. aureus strains): 8 µg/mL (≈ 9.37 µM); MIC A. baumannii (BAA747-1) (A. baumannii strains): 16 µg/mL (≈ 18.7 µM)
CCC1OC(=O)C(Cc2cn[nH]c2)C(=O)C(C)C(OC2OC(C)CC(N(C)C)C2O)C(C)(OCC=Cc2cnc3ccccc3c2)CC(C)CNC(C)C2NC(=O)OC12C (mixture of isomers) [FSM-21264]																	>32 µg/mL	>32 µg/mL	4 µg/mL	>32 µg/mL	MIC S. pneumoniae (1533) (S. pneumoniae strains; S. pneumoniae 1533): >32 µg/mL; MIC S. pneumoniae (1537) (S. pneumoniae strains; S. pneumoniae 1537): >32 µg/mL; MIC S. pneumoniae (49619) (S. pneumoniae strains; S. pneumoniae 49619): 2 µg/mL; MIC H. influenzae (49247) (H. influenzae strains; H. influenzae 49247): 8 µg/mL; MIC H. influenzae (49766) (H. influenzae strains; H. influenzae 49766): >32 µg/mL; MIC E. coli (ATCC 25922) (E. coli strains): >32 µg/mL; MIC S. aureus (183) (S. aureus strains; S. aureus 183): >32 µg/mL; MIC S. aureus (506) (S. aureus strains; S. aureus 506): >32 µg/mL; MIC S. aureus (1708) (S. aureus strains; S. aureus 1708): >32 µg/mL; MIC S. aureus (ATCC 29213) (S. aureus strains): >32 µg/mL; MIC S. aureus (USA300) (S. aureus strains): >32 µg/mL; MIC A. baumannii (BAA747-1) (A. baumannii strains): >32 µg/mL
